Source: paper PMC5913971, “A Novel Piperazine-Based Drug Lead for Cryptosporidiosis from the Medicines for Malaria Venture Open-Access Malaria Box” (Antimicrobial Agents and Chemotherapy, 2018)

The compounds below were run on C. parvum Iowa isolate (assay: Immunofluorescence assay for C. parvum growth inhibition in HCT-8 cells). Details: Cryptosporidium parvum, HCT-8; Table S1, confirmed screening hits; read-out: C. parvum EC50 (95% CI).
Format: cell-based, Cryptosporidium parvum
Experimental: Inhibition of C. parvum growth was measured as described previously ([20]). Oocysts were excysted by treatment with 10 mM hydrochloric acid (10 min at 37°C), followed by exposure to 2 mM sodium taurocholate (Sigma-Aldrich) in PBS for 10 min at 16°C. Excysted oocysts were then added to >95% confluent HCT-8 cell monolayers in 384-well plates at a concentration of 5,500 Iowa isolate oocysts per well. For C. parvum field isolates, the inoculum required to yield an infection level similar to that produced by 5,500 Iowa isolate oocysts per well was determined and was used for subsequent assays of parasite inhibition. Compounds were added just before or 3 h after infection, and assay plates were incubated for 48 h postinfection at 37°C under 5% CO2. Wells were then washed three times with PBS containing 111 mM D-galactose, fixed with 4% paraformaldehyde in PBS for 15 min at room temperature, permeabilized with 0.25% Triton X-100 for 10 min at 37°C, washed three times with PBS with 0.1% Tween 20, and blocked with 4% bovine serum albumin (BSA) in PBS for 2 h at 37°C or 4°C overnight. Parasitophorous vacuoles were stained with 1.33 μg/ml of fluorescein-labeled Vicia villosa lectin (Vector Laboratories) diluted in 1% BSA in PBS with 0.1% Tween 20 for 1 h at 37°C, followed by the addition of Hoechst 33258 (AnaSpec) at a final concentration of 0.09 mM diluted in water for another 15 min at 37°C. Wells were then washed five times with PBS containing 0.1% Tween 20. A Nikon Eclipse TE2000 epifluorescence microscope with an automated stage was programmed using NIS-Elements Advanced Research software (Nikon, USA) to focus on the center of each well and take a 3-by-3 composite image using an EXi Blue fluorescence microscopy camera (QImaging, Canada) with a 20× objective (numerical aperture, 0.45). Nucleus and parasite images were exported separately as .tif files and were analyzed using macros developed on the ImageJ platform (National Institutes of Health) ([20]). The only modification from the published macro used to count parasites was that the lower size threshold for parasites was decreased from 16.5 to 4 pixels (1 pixel = 0.65 μm). Graphs were plotted, and half-maximal effective concentration (EC50) and 90% effective concentration (EC90) values were calculated using GraphPad Prism software, version 6.01. For every C. parvum field isolate experiment, a dose-response experiment against the C. parvum Iowa isolate was performed simultaneously as a reference.

Compound	EC50 [µM]
COc1ccc(C(=O)NC(c2ccc(Cl)cc2Cl)c2cc(Cl)c3cccnc3c2O)cc1 (stereo not drawn) [MMV666054, COc1ccc(cc1)C(=O)NC(c2ccc(Cl)cc2Cl)c3cc(Cl)c4cccnc4c3O]	0.81
COc1cccc(Nc2nc(NCCO)c3ccccc3n2)c1 [MMV011944, n1c(NCCO)c2c(cccc2)nc1Nc3cccc(OC)c3]	3.5
O=C(Nc1ccc(Cl)c(Cl)c1)Nc1ccc(Cl)c(Cl)c1 [MMV665852, Clc1ccc(NC(=O)Nc2ccc(Cl)c(Cl)c2)cc1Cl]	3.4
Cc1ccnc(NC(c2cccc(OCc3ccccc3)c2)c2ccc3cccnc3c2O)c1 (stereo not drawn) [MMV000720, Cc1ccnc(NC(c2cccc(OCc3ccccc3)c2)c4ccc5cccnc5c4O)c1]	0.21
O=C1c2ccc3c4c(ccc(c24)C(=O)N1CCCCO)C(=O)N(CCCCO)C3=O [MMV009085, OCCCCN1C(=O)c2ccc3C(=O)N(CCCCO)C(=O)c4ccc(C1=O)c2c34]	2.6
Oc1c(CN2CCN(c3ccccc3F)CC2)cc(Br)c2cccnc12 [MMV000760, Oc1c(CN2CCN(CC2)c3ccccc3F)cc(Br)c4cccnc14]	0.29

Same assay, conditions: Cryptosporidium parvum, HCT-8; Table S3, SAR of MMV665917; read-out: C. parvum EC50 (95% CI)

Compound	EC50 [µM]
O=C(c1ccc(F)cc1)N1CCN(c2ccc3nnc(C4CC4)n3n2)CC1 [Compound D-29, Fc1ccc(cc1)C(=O)N1CCN(CC1)c1ccc2n(n1)c(nn2)C1CC1]	> 25
CC(Oc1ccc(Cl)cc1Cl)C(=O)N1CCN(c2ccc3nncn3n2)CC1 [Compound D-51, Clc1ccc(c(c1)Cl)OC(C(=O)N1CCN(CC1)c1ccc2n(n1)cnn2)C]	> 25
CC(C)c1ccc(NC(=O)N2CCN(c3ccc4nncn4n3)CC2)cc1 [Compound D-36, O=C(N1CCN(CC1)c1ccc2n(n1)cnn2)Nc1ccc(cc1)C(C)C]	> 25
O=C(Nc1ccc2c(c1)OCO2)N1CCN(c2ccc3nncn3n2)CC1 [Compound D-19, O=C(N1CCN(CC1)c1ccc2n(n1)cnn2)Nc1ccc2c(c1)OCO2]	> 25
NS(=O)(=O)c1ccc(C(=O)N2CCN(c3ccc4nncn4n3)CC2)cc1 [Compound D-45, O=C(c1ccc(cc1)S(=O)(=O)N)N1CCN(CC1)c1ccc2n(n1)cnn2]	> 25
O=C(c1cc(Cl)ccc1Cl)N1CCN(c2ccc3nncn3n2)CC1 [Compound D-47, Clc1ccc(c(c1)C(=O)N1CCN(CC1)c1ccc2n(n1)cnn2)Cl]	> 25
O=S(=O)(c1ccc(Oc2ccccc2)cc1)N1CCN(c2ccc3nncn3n2)CC1 [Compound D-79, O=S(N1CCN(C2=NN3C(C=C2)=NN=C3)CC1)(C4=CC=C(OC5=CC=CC=C5)C=C4)=O]	12
FC(F)(F)c1nnc2ccc(N3CCN(Cc4ccccc4)CC3)nn12 [Compound D-3, FC(c1nnc2n1nc(cc2)N1CCN(CC1)Cc1ccccc1)(F)F]	> 25
O=C(Nc1ccc(Cl)c(Cl)c1)N1CCN(c2ccccc2)CC1 [Compound D-74, O=C(Nc1ccc(Cl)c(Cl)c1)N2CCN(CC2)c3ccccc3]	20
O=C(Nc1ccc(F)c(Cl)c1)N1CCN(c2ccc3nncn3n2)CC1 [Compound D-38, O=C(N1CCN(CC1)c1ccc2n(n1)cnn2)Nc1ccc(c(c1)Cl)F]	12
O=C(Nc1cccc(C(F)(F)F)c1)N1CCN(c2ccc3nncn3n2)CC1 [Compound D-27, O=C(N1CCN(CC1)c1ccc2n(n1)cnn2)Nc1cccc(c1)C(F)(F)F]	17
Cc1nnc2ccc(N3CCN(C(=O)NCc4ccccc4)CC3)nn12 [Compound D-21, O=C(N1CCN(CC1)c1ccc2n(n1)c(C)nn2)NCc1ccccc1]	> 25
O=C(NC1CCCCC1)N1CCN(c2ccc3nncn3n2)CC1 [Compound D-20, O=C(N1CCN(CC1)c1ccc2n(n1)cnn2)NC1CCCCC1]	> 25
COc1ccc(C)cc1NC(=O)N1CCN(c2ccc3nncn3n2)CC1 [Compound D-34, COc1ccc(cc1NC(=O)N1CCN(CC1)c1ccc2n(n1)cnn2)C]	> 25
O=C(Nc1cccc(Cl)c1)N1CCN(c2ccc3nncn3n2)CC1 [Compound D-77, Clc1cccc(c1)NC(=O)N2CCN(CC2)c3ccc4nncn4n3]	~23.7
O=C(c1ccc(S(=O)(=O)N2CCCC2)cc1)N1CCN(c2ccc3nncn3n2)CC1 [Compound D-48, O=C(c1ccc(cc1)S(=O)(=O)N1CCCC1)N1CCN(CC1)c1ccc2n(n1)cnn2]	> 25
O=C(Nc1ccc(Cl)c(Cl)c1)N1CCN(CCn2cccn2)CC1 [Compound D-81, O=C(N1CCN(CCN2N=CC=C2)CC1)NC3=CC=C(Cl)C(Cl)=C3]	> 25
O=C(c1ccc(Cl)cc1)N1CCN(c2ccc3nncn3n2)CC1 [Compound D-46, Clc1ccc(cc1)C(=O)N1CCN(CC1)c1ccc2n(n1)cnn2]	> 25

Compound	EC50 [µM]
CCOC(=O)N1CCN(c2ccc3nnc(C(F)(F)F)n3n2)CC1 [Compound D-4, CCOC(=O)N1CCN(CC1)c1ccc2n(n1)c(nn2)C(F)(F)F]	> 25
O=C(Nc1cc(F)ccc1F)N1CCN(c2ccc3nncn3n2)CC1 [Compound D-37, Fc1ccc(c(c1)NC(=O)N1CCN(CC1)c1ccc2n(n1)cnn2)F]	> 25
O=C(Nc1cc(Cl)ccc1Cl)N1CCN(c2ccc3nncn3n2)CC1 [Compound D-32, Clc1ccc(c(c1)NC(=O)N1CCN(CC1)c1ccc2n(n1)cnn2)Cl]	~24.8
CCOc1ccccc1NC(=O)N1CCN(c2ccc3nncn3n2)CC1 [Compound D-33, CCOc1ccccc1NC(=O)N1CCN(CC1)c1ccc2n(n1)cnn2]	> 25
O=C(COc1cccc(Cl)c1)N1CCN(c2ccc3nncn3n2)CC1 [Compound D-41, Clc1cccc(c1)OCC(=O)N1CCN(CC1)c1ccc2n(n1)cnn2]	18
O=C(NC1CCCCC1)N1CCN(c2ccc3nnc(C4CC4)n3n2)CC1 [Compound D-22, O=C(N1CCN(CC1)c1ccc2n(n1)c(nn2)C1CC1)NC1CCCCC1]	> 25
Cc1nnc2ccc(N3CCN(C(=O)OC(C)(C)C)CC3)nn12 [Compound D-60, O=C(N1CCN(CC1)c1ccc2n(n1)c(C)nn2)OC(C)(C)C]	> 25
CC(=O)N1CCN(c2ccc3nnc(C(F)(F)F)n3n2)CC1 [Compound D-12, CC(=O)N1CCN(CC1)c1ccc2n(n1)c(nn2)C(F)(F)F]	> 25
O=C(COc1ccc(Cl)cc1Cl)N1CCN(c2ccc3nncn3n2)CC1 [Compound D-50, Clc1ccc(c(c1)Cl)OCC(=O)N1CCN(CC1)c1ccc2n(n1)cnn2]	16
O=C(Nc1ccc(OC(F)(F)F)cc1)N1CCN(c2ccc3nncn3n2)CC1 [Compound D-76, FC(F)(F)Oc1ccc(cc1)NC(=O)N2CCN(CC2)c3ccc4nncn4n3]	> 25
O=C(Nc1ccccc1)N1CCN(c2ccc3nncn3n2)CC1 [Compound D-18, O=C(N1CCN(CC1)c1ccc2n(n1)cnn2)Nc1ccccc1]	> 25
O=C(Cc1noc2ccccc12)N1CCN(c2ccc3nncn3n2)CC1 [Compound D-49, O=C(N1CCN(CC1)c1ccc2n(n1)cnn2)Cc1noc2c1cccc2]	> 25
COc1cc(NC(=O)N2CCN(c3ccc4nncn4n3)CC2)cc(OC)c1 [Compound D-35, COc1cc(cc(c1)OC)NC(=O)N1CCN(CC1)c1ccc2n(n1)cnn2]	> 25
O=S(=O)(c1ccc(Cl)cc1)N1CCN(c2ccc3nncn3n2)CC1 [Compound D-23, Clc1ccc(cc1)S(=O)(=O)N1CCN(CC1)c1ccc2n(n1)cnn2]	> 25
COc1ccc(N2CCN(c3ccc4nncn4n3)CC2)cc1 [Compound D-31, COc1ccc(cc1)N1CCN(CC1)c1ccc2n(n1)cnn2]	> 25
O=C(Nc1ccc(Cl)c(Cl)c1)N1CCN(c2nc3ccccc3[nH]2)CC1 [Compound D-80, O=C(N1CCN(C2=NC3=C(C=CC=C3)N2)CC1)NC4=CC=C(Cl)C(Cl)=C4]	17
CN(C)S(=O)(=O)c1ccc(C(=O)N2CCN(c3ccc4nncn4n3)CC2)cc1 [Compound D-44, O=C(c1ccc(cc1)S(=O)(=O)N(C)C)N1CCN(CC1)c1ccc2n(n1)cnn2]	7.1
O=C(COc1ccc(F)cc1)N1CCN(c2ccc3nncn3n2)CC1 [Compound D-26, Fc1ccc(cc1)OCC(=O)N1CCN(CC1)c1ccc2n(n1)cnn2]	20

Same assay, conditions: Cryptosporidium parvum; inside HCT-8 cells, 48 h incubation; Fig. 1; read-out: EC50, anti-C. parvum dose response

Compound	EC50 [µM]
O=C(COc1cccc(Cl)c1)N1CCN(c2ccc3nncn3n2)CC1 [Compound D-41, Clc1cccc(c1)OCC(=O)N1CCN(CC1)c1ccc2n(n1)cnn2]	~18

Same assay, conditions: Table S1, confirmed screening hits; read-out: C. parvum EC50 (95% CI)

Compound	EC50 [µM]
Cc1cccc(-n2ncc3c(=O)[nH]c(-n4nc(C)cc4NC(=O)c4cc5ccccc5o4)nc32)c1 [MMV403679, c1(c(cnn1c2cccc(C)c2)C(=O)N3)N=C3n4nc(C)cc4NC(=O)c5cc(cccc6)c6o5]	0.12

Same assay, conditions: Table S3, SAR of MMV665917; read-out: C. parvum EC50 (95% CI)

Compound	EC50 [µM]
O=C(Nc1ccc(Cl)cc1)N1CCN(c2ccc3nncn3n2)CC1 [Compound D-78, O=C(N1CCN(C2=NN3C(C=C2)=NN=C3)CC1)NC5=CC=C(Cl)C=C5]	> 25
